Assay results from ChEMBL document CHEMBL1201862, “PubChem BioAssay data set” (2004).
Active and inactive are the calls of the source.

Tests used:
HEK293 [1] = test: optical interference in Abeta FP readout, dose response, artefact control for IDE activator project, biochemical, fluorescence polarization (AID 588442); type: functional, cell-based; conditions: Homo sapiens
[2] = target: T1, Zinc finger protein mex-5 (Caenorhabditis elegans, UniProt Q9XUB2); test: potency of MEX-5 RNA-binding blockers – biochemical, C. elegans, fluorescence polarization, dose response (AID 1960)
T1 sequence (Q9XUB2 whole entry): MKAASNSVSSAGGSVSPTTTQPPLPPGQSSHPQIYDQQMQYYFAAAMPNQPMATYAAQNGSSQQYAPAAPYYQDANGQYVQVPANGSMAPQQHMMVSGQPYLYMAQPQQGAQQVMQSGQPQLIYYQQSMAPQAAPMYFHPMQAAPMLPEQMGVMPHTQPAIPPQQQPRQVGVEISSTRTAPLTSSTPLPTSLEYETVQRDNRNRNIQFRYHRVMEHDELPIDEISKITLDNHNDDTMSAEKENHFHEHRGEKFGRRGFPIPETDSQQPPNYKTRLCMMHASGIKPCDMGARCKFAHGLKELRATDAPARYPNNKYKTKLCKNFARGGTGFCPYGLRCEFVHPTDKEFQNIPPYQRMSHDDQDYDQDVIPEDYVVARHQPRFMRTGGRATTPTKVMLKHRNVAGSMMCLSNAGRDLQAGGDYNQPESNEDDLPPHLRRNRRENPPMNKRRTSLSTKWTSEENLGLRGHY

Insulin-degrading enzyme [3] = target: T2, Insulin-degrading enzyme (Homo sapiens, UniProt P14735); test: cellular IDE activation of Abeta substrate cleavage – fluorescence polarization, HEK cells, dose response (AID 588439); type: functional, cell-based
T2 sequence (P14735 whole entry): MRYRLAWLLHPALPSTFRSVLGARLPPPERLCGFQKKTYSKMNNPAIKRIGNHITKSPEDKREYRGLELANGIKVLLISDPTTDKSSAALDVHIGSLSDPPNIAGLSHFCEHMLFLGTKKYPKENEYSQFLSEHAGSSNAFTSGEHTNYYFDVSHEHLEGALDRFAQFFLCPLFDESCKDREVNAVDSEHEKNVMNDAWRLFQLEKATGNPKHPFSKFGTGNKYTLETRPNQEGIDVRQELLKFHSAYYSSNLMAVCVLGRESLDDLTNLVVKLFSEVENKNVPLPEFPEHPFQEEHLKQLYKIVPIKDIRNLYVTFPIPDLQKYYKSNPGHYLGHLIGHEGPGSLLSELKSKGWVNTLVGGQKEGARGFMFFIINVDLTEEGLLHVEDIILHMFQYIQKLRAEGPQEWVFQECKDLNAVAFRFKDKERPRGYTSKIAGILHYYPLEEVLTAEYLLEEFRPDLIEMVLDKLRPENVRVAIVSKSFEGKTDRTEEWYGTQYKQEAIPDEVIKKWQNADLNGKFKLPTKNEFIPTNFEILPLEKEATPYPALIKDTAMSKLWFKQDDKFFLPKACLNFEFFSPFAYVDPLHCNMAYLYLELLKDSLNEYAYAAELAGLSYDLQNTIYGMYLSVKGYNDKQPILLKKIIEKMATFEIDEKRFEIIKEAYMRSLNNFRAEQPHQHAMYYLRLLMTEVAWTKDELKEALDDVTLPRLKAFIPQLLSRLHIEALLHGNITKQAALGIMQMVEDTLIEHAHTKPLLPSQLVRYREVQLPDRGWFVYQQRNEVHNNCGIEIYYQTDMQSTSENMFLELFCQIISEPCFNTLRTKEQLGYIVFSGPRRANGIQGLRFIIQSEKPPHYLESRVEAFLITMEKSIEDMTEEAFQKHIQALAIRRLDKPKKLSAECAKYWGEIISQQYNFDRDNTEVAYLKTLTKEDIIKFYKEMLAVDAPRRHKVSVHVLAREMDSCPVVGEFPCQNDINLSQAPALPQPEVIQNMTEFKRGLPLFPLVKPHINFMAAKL

HEK293 [4] = test: membrane integrity loss in HEK cells – cell-based, fluorescence, cytotoxicity control for IDE activator project, dose response (AID 588440); type: functional; conditions: Homo sapiens;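 note: cytotoxicity by LDH release measuring loss of membrane integrity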
Keap1/Nrf2 = Keap1/Nrf2 (Homo sapiens, UniProt Q14145); test: disruptors of Keap1 binding to Nrf2 peptide – biochemical, fluorescence polarization, cherry-picked samples, dose response (AID 588683)
Insulin-degrading enzyme [5] = target: T2, Insulin-degrading enzyme; test: recombinant IDE activation, cell-free – biochemical, fluorescence polarization, counter-screen for IDE activator project, dose response (AID 588681)
[6] = target: UDP-galactopyranose mutase (Mycobacterium tuberculosis, UniProt P9WIQ1); test: Inhibitors of Mycobacterium tuberculosis UDP-galactopyranose mutase (UGM) enzyme Measured in Biochemical System Using Plate Reader - 2105-02_Inhibitor_Dose_CherryPick_Activity. [Related pubchem assays (depositor defined):AID504439]
[7] = target: T3, RNA-binding protein pos-1 (Caenorhabditis elegans, UniProt G5EF15); test: disruptors of C. elegans POS-1 RNA interaction – biochemical, fluorescence polarization, dose response (AID 1964);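 note: purified POS-1 fused to maltose binding protein made in E. coli; potency of compounds blocking POS-1 binding to fluorescent RNA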
T3 sequence (G5EF15 whole entry): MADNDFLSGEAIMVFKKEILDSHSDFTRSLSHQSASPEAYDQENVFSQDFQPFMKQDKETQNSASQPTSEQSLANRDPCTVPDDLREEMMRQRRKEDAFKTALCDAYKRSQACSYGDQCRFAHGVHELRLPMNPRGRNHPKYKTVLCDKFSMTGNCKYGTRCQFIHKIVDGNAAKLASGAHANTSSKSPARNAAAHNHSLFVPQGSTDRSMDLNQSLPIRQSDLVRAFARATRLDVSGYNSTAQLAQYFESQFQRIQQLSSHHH

ORF 73 = target: T4, ORF 73 (Human herpesvirus 8, UniProt O40947); test: KSHV LANA DNA-binding disruption – biochemical, fluorescence polarization, cherry-picked samples, dose response (AID 504725); set-up: species or system Human gammaherpesvirus 8;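 note: fluorescence polarization of a labeled DNA duplex reporting LANA DNA binding; potency is for inhibitors that block LANA binding to the DNA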
T4 sequence (O40947 whole entry): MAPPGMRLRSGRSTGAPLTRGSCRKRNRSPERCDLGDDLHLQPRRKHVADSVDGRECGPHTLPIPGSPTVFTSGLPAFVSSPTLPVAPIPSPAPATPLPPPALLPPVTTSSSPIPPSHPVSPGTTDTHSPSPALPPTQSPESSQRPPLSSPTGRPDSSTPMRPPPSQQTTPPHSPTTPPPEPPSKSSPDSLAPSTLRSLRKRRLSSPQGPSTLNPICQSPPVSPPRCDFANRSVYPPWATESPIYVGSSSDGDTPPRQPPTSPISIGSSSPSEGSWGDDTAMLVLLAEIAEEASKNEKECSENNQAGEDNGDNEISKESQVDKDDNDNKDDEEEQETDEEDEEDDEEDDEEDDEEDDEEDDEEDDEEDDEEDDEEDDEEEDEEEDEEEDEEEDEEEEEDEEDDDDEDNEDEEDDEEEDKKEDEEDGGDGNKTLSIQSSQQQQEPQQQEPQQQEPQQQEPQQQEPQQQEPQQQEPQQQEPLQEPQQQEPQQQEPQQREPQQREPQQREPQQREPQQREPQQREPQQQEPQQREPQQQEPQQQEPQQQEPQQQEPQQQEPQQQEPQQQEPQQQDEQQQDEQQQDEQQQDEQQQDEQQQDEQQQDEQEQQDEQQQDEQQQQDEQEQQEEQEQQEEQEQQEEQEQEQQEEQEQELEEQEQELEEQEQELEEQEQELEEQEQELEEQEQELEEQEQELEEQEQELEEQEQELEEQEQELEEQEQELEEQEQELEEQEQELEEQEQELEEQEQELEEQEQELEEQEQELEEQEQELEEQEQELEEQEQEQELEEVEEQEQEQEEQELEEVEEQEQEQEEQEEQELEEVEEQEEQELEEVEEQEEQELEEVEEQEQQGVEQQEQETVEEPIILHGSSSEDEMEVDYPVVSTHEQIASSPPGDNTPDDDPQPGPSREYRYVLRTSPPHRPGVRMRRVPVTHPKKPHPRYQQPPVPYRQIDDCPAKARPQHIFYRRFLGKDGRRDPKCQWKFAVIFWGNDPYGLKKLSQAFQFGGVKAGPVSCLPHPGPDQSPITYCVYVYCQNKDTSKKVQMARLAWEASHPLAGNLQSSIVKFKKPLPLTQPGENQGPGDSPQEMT

[8] = target: T5, Orexin/Hypocretin receptor type 1 (Homo sapiens, UniProt O43613); test: Fluorescence-based cell-based high throughput dose response assay for antagonists of the orexin 1 receptor (OX1R; HCRTR1). [Related pubchem assays (depositor defined):AID434989, AID435008, AID463079, AID485270, AID492963, AID492964, AID492965, AID493232, AID504717, AID504718]; type: functional
T5 sequence (O43613 whole entry): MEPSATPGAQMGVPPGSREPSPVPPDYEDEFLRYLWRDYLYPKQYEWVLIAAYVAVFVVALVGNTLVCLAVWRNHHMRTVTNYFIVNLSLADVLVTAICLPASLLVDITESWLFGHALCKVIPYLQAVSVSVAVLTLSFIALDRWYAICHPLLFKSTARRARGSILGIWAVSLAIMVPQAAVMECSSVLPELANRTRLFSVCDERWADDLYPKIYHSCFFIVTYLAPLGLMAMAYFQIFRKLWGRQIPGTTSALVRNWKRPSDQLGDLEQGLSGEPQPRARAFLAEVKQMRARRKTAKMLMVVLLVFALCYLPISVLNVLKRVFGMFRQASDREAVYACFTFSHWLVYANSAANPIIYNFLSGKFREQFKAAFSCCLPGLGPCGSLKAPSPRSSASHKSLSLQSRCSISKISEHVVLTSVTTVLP

Orexin receptor type 2 [9] = target: T6, Orexin receptor type 2 (Homo sapiens, UniProt O43614); test: Counterscreen assay for antagonists of the orexin 1 receptor (OX1R; HCRTR1): Fluorescence-based cell-based dose response assay for antagonists of the orexin 2 receptor (OX2R; HCRTR2), run by assay provider.; type: functional
T6 sequence (O43614 whole entry): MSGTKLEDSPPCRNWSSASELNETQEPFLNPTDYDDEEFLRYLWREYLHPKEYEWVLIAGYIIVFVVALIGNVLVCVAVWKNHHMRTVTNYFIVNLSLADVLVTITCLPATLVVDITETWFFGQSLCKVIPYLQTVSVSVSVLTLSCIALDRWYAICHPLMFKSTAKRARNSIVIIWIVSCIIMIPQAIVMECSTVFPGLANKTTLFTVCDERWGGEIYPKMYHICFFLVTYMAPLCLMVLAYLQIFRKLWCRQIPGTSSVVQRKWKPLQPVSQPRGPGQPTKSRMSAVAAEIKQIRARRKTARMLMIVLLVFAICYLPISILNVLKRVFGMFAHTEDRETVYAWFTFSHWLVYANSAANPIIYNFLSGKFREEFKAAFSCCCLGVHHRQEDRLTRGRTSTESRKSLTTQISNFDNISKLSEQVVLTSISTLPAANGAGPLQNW

CHO-K1 = test: Counterscreen for antagonists of the orexin 1 receptor (OX1R; HCRTR1): Homogeneous time resolved fluorescence (HTRF)-based cell-based dose response assay to identify antagonists of the parental CHO-K1 cell line. [Related pubchem assays (depositor defined):AID434989, AID435008, AID463079, AID485270, AID492963, AID492964, AID492965, AID493232, AID504699, AID504701]; type: functional; conditions: Cricetulus griseus
Orexin receptor type 2 [10] = target: T6, Orexin receptor type 2; test: Counterscreen assay for antagonists of the orexin 1 receptor (OX1R; HCRTR1): Homogeneous Time Resolved Fluorescence (HTRF)-based cell-based dose response assay for antagonists of the orexin 2 receptor (OX2R; HCRTR2), run by assay provider.; type: functional
[11] = Counterscreen for antagonists of the orexin 1 receptor (OX1R; HCRTR1): Fluorescence-based cell-based high throughput dose response assay to identify antagonists of the parental CHO cell line. [Related pubchem assays (depositor defined):AID434989, AID435008, AID463079, AID485270, AID492963, AID492964, AID492965, AID493232, AID504699, AID504701]; type: functional
[12] = target: T5, Orexin/Hypocretin receptor type 1; test: Homogeneous Time Resolved Fluorescence (HTRF)-based cell-based high throughput dose response assay for antagonists of the orexin 1 receptor (OX1R; HCRTR1). [Related pubchem assays (depositor defined):AID434989, AID435008, AID463079, AID485270, AID492963, AID492964, AID492965, AID493232, AID504717, AID504718]; type: functional
[13] = target: 26S proteasome non-ATPase regulatory subunit 14 (Homo sapiens, UniProt O00487); test: inhibition of proteasome subunit RPN11 – biochemical, fluorescence polarization, uHTS hits, confirmation (AID 602368); type: functional
Prothrombin = Prothrombin (Bos taurus, UniProt P00735); test: thrombin protease inhibitors – biochemical, fluorescence polarization, uHTS hits, dose response (AID 602369); type: functional
[14] = target: 72 kDa type IV collagenase (Homo sapiens, UniProt P08253); test: Dose Response validation of uHTS RPN11 inhibitor hits using a MMP-2 Fluorescence assay.; type: functional
72 kDa type IV collagenase, sequence (P08253 whole entry): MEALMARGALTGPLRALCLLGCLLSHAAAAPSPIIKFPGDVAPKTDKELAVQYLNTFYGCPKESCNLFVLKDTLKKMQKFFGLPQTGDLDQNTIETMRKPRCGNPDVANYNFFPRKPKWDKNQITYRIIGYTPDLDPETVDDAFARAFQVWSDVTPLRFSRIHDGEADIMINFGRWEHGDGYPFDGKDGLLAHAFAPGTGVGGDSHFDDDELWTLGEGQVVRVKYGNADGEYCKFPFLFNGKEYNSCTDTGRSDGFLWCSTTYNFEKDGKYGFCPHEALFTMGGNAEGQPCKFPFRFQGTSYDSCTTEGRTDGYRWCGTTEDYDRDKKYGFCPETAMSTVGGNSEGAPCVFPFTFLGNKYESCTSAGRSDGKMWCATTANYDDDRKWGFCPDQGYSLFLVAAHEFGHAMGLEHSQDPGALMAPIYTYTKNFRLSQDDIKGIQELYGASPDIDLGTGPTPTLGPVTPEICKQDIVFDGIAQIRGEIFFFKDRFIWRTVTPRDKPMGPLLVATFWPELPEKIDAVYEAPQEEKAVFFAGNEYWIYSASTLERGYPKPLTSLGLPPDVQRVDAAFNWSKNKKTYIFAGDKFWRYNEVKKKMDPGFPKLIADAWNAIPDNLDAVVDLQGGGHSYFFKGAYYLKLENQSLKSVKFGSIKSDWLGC

Keap1/Nrf2, sequence (Q16236 whole entry): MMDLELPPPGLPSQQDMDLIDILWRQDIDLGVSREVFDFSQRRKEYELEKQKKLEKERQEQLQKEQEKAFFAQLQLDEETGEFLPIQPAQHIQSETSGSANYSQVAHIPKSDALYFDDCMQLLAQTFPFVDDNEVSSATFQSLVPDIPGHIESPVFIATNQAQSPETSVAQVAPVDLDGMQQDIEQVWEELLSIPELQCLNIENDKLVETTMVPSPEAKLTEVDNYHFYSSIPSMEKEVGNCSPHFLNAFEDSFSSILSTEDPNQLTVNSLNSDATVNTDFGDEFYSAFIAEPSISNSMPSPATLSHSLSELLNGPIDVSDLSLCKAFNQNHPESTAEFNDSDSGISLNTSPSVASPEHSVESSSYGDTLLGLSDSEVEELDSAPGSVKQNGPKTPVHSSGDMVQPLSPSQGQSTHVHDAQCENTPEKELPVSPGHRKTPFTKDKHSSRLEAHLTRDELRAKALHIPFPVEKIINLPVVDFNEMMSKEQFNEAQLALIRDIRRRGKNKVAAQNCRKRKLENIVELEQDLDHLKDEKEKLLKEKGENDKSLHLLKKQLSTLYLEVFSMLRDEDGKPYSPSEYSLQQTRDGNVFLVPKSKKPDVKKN
Keap1/Nrf2, sequence (Q14145 whole entry): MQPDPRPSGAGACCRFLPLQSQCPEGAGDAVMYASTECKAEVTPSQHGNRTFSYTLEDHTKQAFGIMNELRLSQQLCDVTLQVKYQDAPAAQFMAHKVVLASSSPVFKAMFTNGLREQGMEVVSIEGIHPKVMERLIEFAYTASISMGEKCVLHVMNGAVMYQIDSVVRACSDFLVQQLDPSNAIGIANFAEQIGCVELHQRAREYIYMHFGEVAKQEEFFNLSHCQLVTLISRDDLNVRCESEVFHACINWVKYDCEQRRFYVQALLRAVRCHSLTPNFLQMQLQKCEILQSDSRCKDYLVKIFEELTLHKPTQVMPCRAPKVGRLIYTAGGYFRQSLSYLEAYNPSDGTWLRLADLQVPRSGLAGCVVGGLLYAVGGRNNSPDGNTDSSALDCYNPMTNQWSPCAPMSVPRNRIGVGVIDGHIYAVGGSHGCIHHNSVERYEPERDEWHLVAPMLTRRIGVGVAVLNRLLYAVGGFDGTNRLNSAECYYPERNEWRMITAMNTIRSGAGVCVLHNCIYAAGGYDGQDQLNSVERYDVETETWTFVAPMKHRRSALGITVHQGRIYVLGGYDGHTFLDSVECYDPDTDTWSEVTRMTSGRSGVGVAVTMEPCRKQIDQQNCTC
UDP-galactopyranose mutase, sequence (P9WIQ1 whole entry, the tested form may be a part): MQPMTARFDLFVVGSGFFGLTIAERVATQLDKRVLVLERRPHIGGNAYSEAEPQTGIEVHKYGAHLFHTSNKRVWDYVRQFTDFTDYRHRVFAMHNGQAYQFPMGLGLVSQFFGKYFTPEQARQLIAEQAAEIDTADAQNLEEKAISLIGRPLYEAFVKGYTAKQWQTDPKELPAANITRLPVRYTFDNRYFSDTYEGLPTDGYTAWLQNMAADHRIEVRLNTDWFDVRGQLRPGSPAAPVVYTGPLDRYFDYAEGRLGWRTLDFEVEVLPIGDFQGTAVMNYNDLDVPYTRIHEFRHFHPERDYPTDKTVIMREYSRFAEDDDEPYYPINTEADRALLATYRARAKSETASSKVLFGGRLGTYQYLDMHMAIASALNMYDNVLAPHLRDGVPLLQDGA
26S proteasome non-ATPase regulatory subunit 14, sequence (O00487 whole entry): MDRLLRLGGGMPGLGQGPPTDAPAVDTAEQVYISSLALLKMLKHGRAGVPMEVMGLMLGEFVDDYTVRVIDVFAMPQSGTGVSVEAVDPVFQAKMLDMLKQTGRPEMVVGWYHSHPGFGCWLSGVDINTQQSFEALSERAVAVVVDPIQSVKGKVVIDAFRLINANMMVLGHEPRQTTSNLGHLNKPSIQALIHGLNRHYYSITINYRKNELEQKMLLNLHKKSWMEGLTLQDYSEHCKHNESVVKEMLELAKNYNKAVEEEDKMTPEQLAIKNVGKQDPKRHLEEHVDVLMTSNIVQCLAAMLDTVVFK

## COc1ccc(NC(=O)NS(=O)(=O)c2ccc(C)cc2)cn1
HEK293 [1]
  EC50: > 55.9 µM (inactive)
[2]
  EC50: 2.38 µM (inconclusive)
Insulin-degrading enzyme [3]
  EC50: > 54.7 µM (inactive)
HEK293 [4]
  IC50: > 89.2 µM (inactive)
Keap1/Nrf2
  AC50: > 52 µM (inactive)
Insulin-degrading enzyme [5]
  EC50: > 54.7 µM (inactive)
[6]
  AC50: 90.9 µM (active)
[7]
  EC50: 2.37 µM (inconclusive)
ORF 73
  AC50: 87.5 µM (active)

## Cc1ccsc1/C=N/N=C1\C(=O)Nc2ccccc21
[8]
  IC50: 8.44 µM (active)
Orexin receptor type 2 [9]
  IC50: > 88.8 µM (inactive)
CHO-K1
  IC50: 46.8 µM (inactive)
Orexin receptor type 2 [10]
  IC50: > 50 µM (inactive)
[11]
  IC50: > 49.7 µM (inactive)
[12]
  IC50: 2.36 µM (active)

## O=c1c2ccccc2nc2c3ccccc3c(NCc3ccccn3)nn12
[8]
  IC50: 16.7 µM (inactive)
Orexin receptor type 2 [9]
  IC50: > 88.8 µM (inactive)
CHO-K1
  IC50: > 66.2 µM (inactive)
Orexin receptor type 2 [10]
  IC50: > 50 µM (inactive)
[11]
  IC50: > 49.7 µM (inactive)
[12]
  IC50: 4.96 µM (active)

## Cc1cc(C)c2cc3c(N)c(C(=O)Nc4c(C)nc(O)nc4O)sc3nc2c1
[13]
  IC50: 13.2 µM (active)
Prothrombin
  IC50: 15.5 µM (active)
[14]
  IC50: > 100 µM (inactive)
